# Results as given in US10793543B2, “Selective C-KIT kinase inhibitor” (PRECEDO PHARMACEUTICALS CO., LTD, priority 2016, dated 2020).
# Assays:
# [1] = tested on: Tel-cKit-BaF3 cells (KIT WT); experiment: Cell proliferation, CCK-8, Tel-cKit-BaF3; assay type: cell-based; settings: Mus musculus, 72 hours
# Source text: (§1) In addition, in the present example, further uses: mouse P210/BaF3 (stably expressing P210 Bcr-Abl mutant gene), mouse Tel-ABL-BaF3 (stably expressing wild-type ABL kinase), mouse Tel-cKit-BaF3 (stably expressing C-KITwild-type kinase), mouse Tel-cKit/V559D-BaF3 (stably expressing C-KIT V559D mutant kinase), mouse Tel-cKit/V559D/V654A-BaF3 (stably expressing C-KIT V559D/V654A mutant kinase), mouse Tel-cKit/N822K-BaF3 (stably expressing C-KIT N822K mutant kinase), mouse Tel-cKit/V654A-BaF3 (stably expressing C-KIT V654A mutant kinase), mouse Tel-cKit/L567P-BaF3 (stably expressing C-KIT L567P mutant kinase), mouse Tel-cKit/T670I-BaF3 (stably expressing C-KIT T670I mutant kinase), mouse Tel-PDGFRα-BaF3 (stably expressing PDGFRα kinase), mouse Tel-PDGFRβ-BaF3 (stably expressing PDGFRβ kinase), mouse Tel-VEGFR2-BaF3 (stably expressing VEGFR2 kinase), mouse Tel-RET-BaF3 (stably expressing RET kinase). The above cell lines were all constructed by our laboratory according to the following method: the kinase region sequences of human P210 Bcr-Abl, ABL, C-KIT, C-KIT V559D, C-KIT V559D/V654A, C-KIT N822K, C-KIT V654A, C-KIT L567P, C-KIT T670I, PDGFRα, PDGFRβ, VEGFR2, RET were amplified respectively by PCR, inserted respectively into MSCV-Puro vectors harboring N-terminal TEL fragment and/or NPM fragment and/or TPR fragment (Clontech), then the vectors were stably transfected into mouse BaF3 cells by retrovirus methods and growth factor IL-3 was removed, eventually obtaining cell lines that are transferred protein (P210 Bcr-Abl, ABL, C-KIT, C-KIT V559D, C-KIT V559D/V654A, C-KIT N822K, C-KIT V654A, C-KIT L567P, C-KIT T670I, PDGFRα, PDGFRβ, VEGFR2, RET)-dependent.
# (§2) The cells were incubated for 72 hours, and then the number of viable cells was quantified with a microplate reader by using CCK-8 Cell Viability Assay Kit (purchased from Bestbio Company, Shanghai, China) (CCK-8 can be reduced by dehydrogenase in living cells to a highly water-soluble yellow formazan product, and the amount of formazan produced is proportional to the number of living cells).
# [2] = tested on: Tel-VEGFR2-BaF3 cells (VEGFR2); experiment: Cell proliferation, CCK-8, Tel-VEGFR2-BaF3; assay type: cell-based; settings: Mus musculus, Tel-VEGFR2-BaF3, VEGFR2, 72 hours
# Source text: as §1, §2
# [3] = tested on: Tel-cKit/N822K-BaF3 cells (KIT N822K); experiment: Cell proliferation, CCK-8, Tel-cKit/N822K-BaF3; assay type: cell-based; settings: Mus musculus, 72 hours
# Source text: as §1, §2
# [4] = tested on: Tel-cKit/V654A-BaF3 cells (KIT V654A); experiment: Cell proliferation, CCK-8, Tel-cKit/V654A-BaF3; assay type: cell-based; settings: Mus musculus, 72 hours
# Source text: as §1, §2
# [5] = tested on: Tel-PDGFRβ-BaF3 cells (PDGFRβ); experiment: Cell proliferation, CCK-8, Tel-PDGFRβ-BaF3; assay type: cell-based; settings: Mus musculus, 72 hours
# Source text: as §1, §2
# [6] = tested on: cells expressing wild-type C-KIT kinase; experiment: Cell proliferation, C-KIT cells; assay type: cell-based; settings: cells expressing C-KIT kinase, summary of Table 2
# Source text: (§3) In the present example, the following cells were used: chronic myelogenous leukemia cells K562 (expressing P210 Bcr-Abl mutant gene), human megakaryocytic leukemia cells MEG-01 (expressing P210 Bcr-Abl mutant gene), human peripheral blood basophilic leukemia cells Ku812 (expressing Bcr-Abl mutant gene) (all above cells purchased from ATCC, USA), human gastrointestinal stromal tumor cell lines GIST-T1 cells (expressing wild-type C-KIT gene) (purchased from Cosmo Bio Co., Ltd., Japan), human gastrointestinal stromal tumor cell lines GIST-882 cells (expressing wild-type C-KIT gene) (presented by the Professor Gray Lab, Dana-Farber Cancer Institute, Harvard University, USA), mouse pro-B cells BaF3 (purchased from ATCC, USA).
# as §1, §2
# [7] = tested on: Tel-RET-BaF3 cells (RET WT); experiment: Cell proliferation, CCK-8, Tel-RET-BaF3; assay type: cell-based; settings: Mus musculus, 72 hours
# Source text: as §1, §2
# [8] = tested on: GIST-T1 cells; experiment: Cancer cell proliferation, CCK-8, GIST-T1; assay type: cell-based; settings: Homo sapiens, GISTT1, GIST-T1, KIT WT, 72 hours
# Source text: as §3, §2
# [9] = tested on: Tel-cKit/V559D-BaF3 cells (KIT V559D); experiment: Cell proliferation, CCK-8, Tel-cKit/V559D-BaF3; assay type: cell-based; settings: Mus musculus, 72 hours
# Source text: as §1, §2
# [10] = tested on: Tel-PDGFRα-BaF3 cells (PDGFRα); experiment: Cell proliferation, CCK-8, Tel-PDGFRα-BaF3; assay type: cell-based; settings: Mus musculus, 72 hours
# Source text: as §1, §2
# [11] = tested on: BaF3 cells; experiment: Cell proliferation, CCK-8, parental BaF3; assay type: cell-based; settings: Mus musculus, 72 hours
# Source text: as §3, §2
# [12] = tested on: Tel-cKit/L576P-BaF3 cells (KIT L576P); experiment: Cell proliferation, CCK-8, Tel-cKit/L576P-BaF3; assay type: cell-based; settings: Mus musculus, 72 hours
# Source text: as §1, §2
# [13] = tested on: Tel-cKit/V559D/V654A-BaF3 cells (KIT V559D/V654A); experiment: Cell proliferation, CCK-8, Tel-cKit/V559D/V654A-BaF3; assay type: cell-based; settings: Mus musculus, 72 hours
# Source text: as §1, §2
# [14] = tested on: GIST-882 cells; experiment: Cancer cell proliferation, CCK-8, GIST-882; assay type: cell-based; settings: Homo sapiens, GIST882, GIST-882, KIT WT, 72 hours
# Source text: as §3, §2
# [15] = Acute toxicity assay in mice, single oral gavage; assay type: in vivo; settings: for Number of death (number of death/number of animals in each group): female mice, 7 days observation
# Description: (§4) 1. 4-6 week-old Bal b/c female mice were purchased from Shanghai SLAC Experimental Animal Co., Ltd., and were raised in a SPF-level laboratory. Drinking water and padding were both subjected to aseptic processing via high-pressure disinfection, and all operations of the mice were conducted under aseptic conditions; 10 healthy mice were selected, and were balanced and randomly divided into 5 groups according to their weights.
# 2. Specific Information for Administration
# Route of administration: oral gavage
# Observation period: 7 days.
# 3. Observation Indicators
# Weighing frequency: upon grouping, the day of administration (D0) to the seventh day after administration (D7). Based on the mouse weight on D0 (starting value of 100%), the graph of the relative body weight over time was plotted.
# 3.2. Clinical Symptoms Observation
# Strict observation was carried out within 4 hours after administration, and then observation was carried out twice a day for a total of 7 days. Observation was carried out and abnormal symptoms or phenomena in each of animals were recorded.
# The number of animals died in each of dosage groups during the observation period.
# Comprehensive determination was performed based on animal mortality, clinical symptoms and body weights.
# [16] = tested on: Tel-cKit/T670I-BaF3 cells (KIT T670I); experiment: Cell proliferation, CCK-8, Tel-cKit/T670I-BaF3; assay type: cell-based; settings: Mus musculus, 72 hours
# Source text: as §1, §2
# [17] = tested on: phosphorylation of Bcr-Abl kinase and pathway proteins in K562 cells; experiment: Effects on cell signaling pathways (phosphorylation), K562; assay type: cell-based, human; settings: K562, 0.1 μM, 2 hours
# [18] = tested on: gastrointestinal stromal tumor cell lines GIST-882; experiment: Mouse tumor model of GIST-882 cells; assay type: in vivo; settings: GIST-882 model, 100 mg/kg oral daily, Day 21 after administration
# Description: as §4, with “conditions;” for “conditions; 10 healthy mice were selected, and were balanced and randomly divided into 5 groups according to their weights.”
# (§5) 2. About 5×10^6 gastrointestinal stromal tumor cell lines GIST-T1 or GIST-882 (purchased from ATCC) were respectively injected subcutaneously at left side back of all mice at Day 0;
# (§6) 5. Mice were sacrificed on Day 36 (for GIST-882 mouse model) or Day 43 (GIST-T1 mouse model) and subcutaneous tumors were taken out and weighed for comparison;
# (§7) 6. Tumor tissue specimens were prepared into protein lysate samples for further usage;
# (§8) 7. Growth trend of subcutaneous tumors from Day 16 to Day 43 was derived, and tumor volume was calculated as length×width×width/2 mm^3.
# [19] = tested on: gastrointestinal stromal tumor cell lines GIST-T1; experiment: Mouse tumor model of GIST-T1 cells; assay type: in vivo; settings: 100 mg/kg oral daily, Day 28 after administration
# Description: as §4, with “conditions;” for “conditions; 10 healthy mice were selected, and were balanced and randomly divided into 5 groups according to their weights.”
# as §5, §6, §7, §8
# [20] = tested on: MEG-01 cells (P210 Bcr-Abl); experiment: Cancer cell proliferation, CCK-8, MEG-01; assay type: cell-based; settings: Homo sapiens, MEG-01, 72 h
# Source text: as §3, §2
# [21] = tested on: Ku812 cells (Bcr-Abl); experiment: Cancer cell proliferation, CCK-8, Ku812; assay type: cell-based; settings: Homo sapiens, KU812, 72 h
# Source text: as §3, §2
# [22] = tested on: K562 cells (P210 Bcr-Abl); experiment: Cancer cell proliferation, CCK-8, K562; assay type: cell-based; settings: Homo sapiens, K562, 72 h
# Source text: as §3, §2
# [23] = tested on: P210/BaF3 cells (P210 Bcr-Abl); experiment: Cell proliferation, CCK-8, P210/BaF3; assay type: cell-based; settings: Mus musculus, BaF3, 72 h
# Source text: (§9) In addition, in the present example, further uses: mouse P210/BaF3 (stably expressing P210 Bcr-Abl mutant gene), mouse Tel-ABL-BaF3 (stably expressing wild-type ABL kinase), mouse Tel-cKit-BaF3 (stably expressing C-KITwild-type kinase), mouse Tel-cKit/V559D-BaF3 (stably expressing C-KIT V559D mutant kinase), mouse Tel-cKit/V559D/V654A-BaF3 (stably expressing C-KIT V559D/V654A mutant kinase), mouse Tel-cKit/N822K-BaF3 (stably expressing C-KIT N822K mutant kinase), mouse Tel-cKit/V654A-BaF3 (stably expressing C-KIT V654A mutant kinase), mouse Tel-cKit/L567P-BaF3 (stably expressing C-KIT L567P mutant kinase), mouse Tel-cKit/T670I-BaF3 (stably expressing C-KIT T670I mutant kinase), mouse Tel-PDGFRα-BaF3 (stably expressing PDGFRα kinase), mouse Tel-PDGFRβ-BaF3 (stably expressing PDGFRβ kinase), mouse Tel-VEGFR2-BaF3 (stably expressing VEGFR2 kinase), mouse Tel-RET-BaF3 (stably expressing RET kinase). […]
# as §2
# [24] = tested on: Tel-ABL-BaF3 cells (ABL WT); experiment: Cell proliferation, CCK-8, Tel-ABL-BaF3; assay type: cell-based; settings: Mus musculus, 72 h
# Source text: as §9, §2
SMILES,GI50 [1] [nM],GI50 [2] [nM],GI50 [3] [nM],GI50 [4] [nM],GI50 [5] [nM],GI50 [6] [nM],GI50 [7] [nM],GI50 [8] [nM],GI50 [9] [nM],GI50 [10] [nM],GI50 [11] [nM],GI50 [12] [nM],GI50 [13] [nM],GI50 [14] [nM],GI50 [16] [nM],also measured
Cc1ccc(NC(=O)c2ccc(CN3CCN(C)CC3)c(C(F)(F)F)c2)cc1OC1CCN(C(=O)c2ccncc2)CC1 [B],170,7,130,585,40,< 500,300,27,20,15,> 10000,–,–,–,–,–
Cc1ccc(NC(=O)c2ccc(CN3CCN(C)CC3)c(C(F)(F)F)c2)cc1OC1CCN(C(=O)c2cccnc2)CC1 [Compound A],147,17,378,2260,52,–,390,14,134,95,> 10000,321,2450,67,1010,Number of death (number of death/number of animals in each group) ([15]; 250 mg/kg single oral gavage): ♀: 0/2; Number of death (number of death/number of animals in each group) ([15]; 500 mg/kg single oral gavage): ♀: 0/2; clinical symptoms ([15]; 1000 mg/kg single oral gavage): started to be quiet and lie down around 40 minutes; mice died ([15]; 1000 mg/kg single oral gavage): 1; Number of death (number of death/number of animals in each group) ([15]; 1000 mg/kg single oral gavage): ♀: 1/2; clinical symptoms ([15]; 2000 mg/kg single oral gavage): gait of mice was unstable; mice died ([15]; 2000 mg/kg single oral gavage): 2; Number of death (number of death/number of animals in each group) ([15]; 2000 mg/kg single oral gavage): ♀: 2/2; proteins in Bcr-Abl signaling pathways upstream and downstream [17]: very strong inhibitory effects
C=CC(=O)N1CCC(Oc2cc(NC(=O)c3ccc(CN4CCN(C)CC4)c(C(F)(F)F)c3)ccc2C)CC1 [Compound C],–,5,380,401,42,< 500,490,30,36,36,> 10000,–,–,–,952,–
Cc1ccc(NC(=O)c2ccc(CN3CCN(C)CC3)cc2)cc1Nc1nccc(-c2cccnc2)n1 [imatinib],412,> 10000,1290,2490,–,< 500,6310,8,39,–,> 10000,102,3000,14,6670,tumor inhibition rate [18]: 49%; tumor inhibition rate [19]: 72.4%
Cc1cn(-c2cc(NC(=O)c3ccc(C)c(Nc4nccc(-c5cccnc5)n4)c3)cc(C(F)(F)F)c2)cn1 [nilotinib],47,5380,166,365,32,< 500,2660,6,22,32,> 10000,81,648,17,2860,GI50 [20]: 0.4 nM; GI50 [21]: 1.2 nM; GI50 [22]: 3 nM; GI50 [23]: 12.5 nM; GI50 [24]: 26 nM
